{"source": "patent US20260285850A1", "about": "“SUBSTITUTED OXAZOLIDINONES AND IMIDAZOLINONES AS HERBICIDES” (FMC CORPORATION, priority 2023, published 2026)", "assay_type_in_all_cases": "in vivo", "key": {"[1]": {"system": "sedge, umbrella (small-flower umbrella sedge, Cyperus difformis)", "assay": "Test B flooded paddy test, visual plant response rating 0-100", "conditions": "250 g ai/ha, Flood, applied to paddy water, evaluated after 13 days", "outline": "(§1)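 Paddy-water application: test compounds went directly into water flooded 3 cm above the soil surface, with plants at 2 leaves. After a 13-day greenhouse period, responses were judged by eye relative to controls; a dash marks an untested entry.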"}, "[2]": {"system": "ducksalad (Heteranthera limosa)", "assay": "Test B flooded paddy test, visual plant response rating 0-100", "conditions": "250 g ai/ha, Flood, applied to paddy water, evaluated after 13 days", "outline": "as §1"}, "[3]": {"system": "barnyardgrass (Echinochloa crusgalli)", "assay": "Test B flooded paddy test, visual plant response rating 0-100", "conditions": "250 g ai/ha, Flood, applied to paddy water, evaluated after 13 days", "outline": "as §1"}, "[4]": {"system": "rice (Oryza sativa)", "assay": "Test B flooded paddy test, visual plant response rating 0-100", "conditions": "250 g ai/ha, Flood, applied to paddy water, evaluated after 13 days", "outline": "as §1"}, "[5]": {"system": "blackgrass (Alopecurus myosuroides)", "assay": "Test A preemergence soil spray, visual injury rating 0-100", "conditions": "10 days, 0 = no effect, 100 = complete control", "description": "(§2) Seeds of plant species selected from barnyardgrass (Echinochloa crus-galli), blackgrass (Alopecurus myosuroides), corn (Zea mays), foxtail, giant (giant foxtail, Setaria faberi), green foxtail (Setaria viridis), goosegrass (Eleusine indica), kochia (Bassia scoparia), oat, wild (wild oat, Avena fatua), palmer (palmer amaranth, palmer pigweed, Amaranthus palmeri), ragweed (common ragweed, Ambrosia artemisiifolia), ryegrass, Italian (italian ryegrass, Lolium multiflorum), soybean (Glycine max) and wheat (Triticum aestivum) were planted into a blend of loam soil and sand and treated preemergence with a directed soil spray using test chemicals formulated in a non-phytotoxic solvent mixture which included a surfactant.\n(§3) At the same time, plants selected from these crops and weed species and also galium (catchweed bedstraw, Galium aparine) and horseweed (Erigeron canadensis) were planted in pots containing the same blend of loam soil and sand and treated with postemergence applications of test chemicals formulated in the same manner. Plants ranged in height from 2 to 10 cm and were in the one- to two-leaf stage for the postemergence treatment. Treated plants and untreated controls were maintained in a greenhouse for 10 days, after which time all treated plants were compared to untreated controls and visually evaluated for injury. Plant response ratings, summarized in Table A, are based on a 0 to 100 scale where 0 is no effect and 100 is complete control. A dash (-) response means no test result."}, "[6]": {"system": "ryegrass, Italian (italian ryegrass, Lolium multiflorum)", "assay": "Test A preemergence soil spray, visual injury rating 0-100", "conditions": "10 days, 0 = no effect, 100 = complete control", "description": "as §2, §3"}, "[7]": {"system": "kochia (Bassia scoparia)", "assay": "Test A preemergence soil spray, visual injury rating 0-100", "conditions": "10 days, 0 = no effect, 100 = complete control", "description": "as §2, §3"}, "[8]": {"system": "ragweed (common ragweed, Ambrosia artemisiifolia)", "assay": "Test A preemergence soil spray, visual injury rating 0-100", "conditions": "10 days, 0 = no effect, 100 = complete control", "description": "as §2, §3"}, "[9]": {"system": "palmer (palmer amaranth, palmer pigweed, Amaranthus palmeri)", "assay": "Test A preemergence soil spray, visual injury rating 0-100", "conditions": "10 days, 0 = no effect, 100 = complete control", "description": "as §2, §3"}, "[10]": {"system": "soybean (Glycine max)", "assay": "Test A preemergence soil spray, visual injury rating 0-100", "conditions": "10 days, 0 = no effect, 100 = complete control", "description": "as §2, §3"}, "[11]": {"system": "barnyardgrass (Echinochloa crus-galli)", "assay": "Test A preemergence soil spray, visual injury rating 0-100", "conditions": "10 days, 0 = no effect, 100 = complete control", "description": "as §2, §3"}, "[12]": {"system": "corn (Zea mays)", "assay": "Test A preemergence soil spray, visual injury rating 0-100", "conditions": "10 days, 0 = no effect, 100 = complete control", "description": "as §2, §3"}, "[13]": {"system": "green foxtail (Setaria viridis)", "assay": "Test A preemergence soil spray, visual injury rating 0-100", "conditions": "10 days, 0 = no effect, 100 = complete control", "description": "as §2, §3"}, "[14]": {"system": "oat, wild (wild oat, Avena fatua)", "assay": "Test A preemergence soil spray, visual injury rating 0-100", "conditions": "10 days, 0 = no effect, 100 = complete control", "description": "as §2, §3"}, "[15]": {"system": "wheat (Triticum aestivum)", "assay": "Test A preemergence soil spray, visual injury rating 0-100", "conditions": "10 days, 0 = no effect, 100 = complete control", "description": "as §2, §3"}, "[16]": {"system": "blackgrass (Alopecurus myosuroides)", "assay": "Test A postemergence application, visual injury rating 0-100", "conditions": "10 days", "description": "as §2, §3"}, "[17]": {"system": "ryegrass, Italian (italian ryegrass, Lolium multiflorum)", "assay": "Test A postemergence application, visual injury rating 0-100", "conditions": "10 days", "description": "as §2, §3"}, "[18]": {"system": "kochia (Bassia scoparia)", "assay": "Test A postemergence application, visual injury rating 0-100", "conditions": "10 days", "description": "as §2, §3"}, "[19]": {"system": "ragweed (common ragweed, Ambrosia artemisiifolia)", "assay": "Test A postemergence application, visual injury rating 0-100", "conditions": "10 days", "description": "as §2, §3"}, "[20]": {"system": "palmer (palmer amaranth, palmer pigweed, Amaranthus palmeri)", "assay": "Test A postemergence application, visual injury rating 0-100", "conditions": "10 days", "description": "as §2, §3"}, "[21]": {"system": "soybean (Glycine max)", "assay": "Test A postemergence application, visual injury rating 0-100", "conditions": "10 days", "description": "as §2, §3"}, "[22]": {"system": "barnyardgrass (Echinochloa crus-galli)", "assay": "Test A postemergence application, visual injury rating 0-100", "conditions": "10 days", "description": "as §2, §3"}, "[23]": {"system": "corn (Zea mays)", "assay": "Test A postemergence application, visual injury rating 0-100", "conditions": "10 days", "description": "as §2, §3"}, "[24]": {"system": "green foxtail (Setaria viridis)", "assay": "Test A postemergence application, visual injury rating 0-100", "conditions": "10 days", "description": "as §2, §3"}, "[25]": {"system": "horseweed (Erigeron canadensis)", "assay": "Test A postemergence application, visual injury rating 0-100", "conditions": "10 days", "description": "as §2, §3"}, "[26]": {"system": "oat, wild (wild oat, Avena fatua)", "assay": "Test A postemergence application, visual injury rating 0-100", "conditions": "10 days", "description": "as §2, §3"}, "[27]": {"system": "wheat (Triticum aestivum)", "assay": "Test A postemergence application, visual injury rating 0-100", "conditions": "10 days", "description": "as §2, §3"}, "[28]": {"conditions": "31 g ai/ha, postemergence, 0 = no effect, 100 = complete control"}, "[29]": {"conditions": "Postemergence, 125 g ai/ha, 0 is no effect, 100 is complete control"}}}
{"smiles": "CONC(=O)C1CC(NC(=O)C2(C)CN(c3cc(F)cc(F)c3)C(=O)O2)CO1", "note": "(centres unmarked) [Compound 39]", "values": [{"measurement": "Plant response rating, Sedge, Umbrella (0 to 100 scale, 0 is no effect and 100 is complete control)", "setting": "[1]", "value": 0}, {"measurement": "Plant response rating, Ducksalad (0 to 100 scale, 0 is no effect and 100 is complete control)", "setting": "[2]", "value": 0}, {"measurement": "Plant response rating, Barnyardgrass (0 to 100 scale, 0 is no effect and 100 is complete control)", "setting": "[3]", "value": 0}, {"measurement": "Plant response rating, Rice (0 to 100 scale, 0 is no effect and 100 is complete control)", "setting": "[4]", "value": 0}, {"measurement": "Blackgrass plant response rating (0-100)", "setting": "[5]; 31 g ai/ha", "value": 0}, {"measurement": "Blackgrass plant response rating (0 to 100 scale)", "setting": "[5]; 125 g ai/ha", "value": 60}, {"measurement": "Ryegrass, Italian plant response rating (0-100)", "setting": "[6]; 31 g ai/ha", "value": 0}, {"measurement": "Ryegrass, Italian plant response rating (0 to 100 scale)", "setting": "[6]; 125 g ai/ha", "value": 40}, {"measurement": "Kochia plant response rating (0-100)", "setting": "[7]; 31 g ai/ha", "value": 0}, {"measurement": "Kochia plant response rating (0 to 100 scale)", "setting": "[7]; 125 g ai/ha", "value": 20}, {"measurement": "Ragweed plant response rating (0-100)", "setting": "[8]; 31 g ai/ha", "value": 0}, {"measurement": "Ragweed plant response rating (0 to 100 scale)", "setting": "[8]; 125 g ai/ha", "value": 0}, {"measurement": "Amaranth, Palmer plant response rating (0-100)", "setting": "[9]; 31 g ai/ha", "value": 0}, {"measurement": "Amaranth, Palmer plant response rating (0 to 100 scale)", "setting": "[9]; 125 g ai/ha", "value": 0}, {"measurement": "Soybean plant response rating (0-100)", "setting": "[10]; 31 g ai/ha", "value": 0}, {"measurement": "Soybean plant response rating (0 to 100 scale)", "setting": "[10]; 125 g ai/ha", "value": 10}, {"measurement": "Barnyardgrass plant response rating (0-100)", "setting": "[11]; 31 g ai/ha", "value": 0}, {"measurement": "Barnyardgrass plant response rating (0 to 100 scale)", "setting": "[11]; 125 g ai/ha", "value": 20}, {"measurement": "Corn plant response rating (0-100)", "setting": "[12]; 31 g ai/ha", "value": 0}, {"measurement": "Corn plant response rating (0 to 100 scale)", "setting": "[12]; 125 g ai/ha", "value": 0}, {"measurement": "Foxtail, Green plant response rating (0-100)", "setting": "[13]; 31 g ai/ha", "value": 0}, {"measurement": "Foxtail, Green plant response rating (0 to 100 scale)", "setting": "[13]; 125 g ai/ha", "value": 0}, {"measurement": "Oat, Wild plant response rating (0-100)", "setting": "[14]; 31 g ai/ha", "value": 0}, {"measurement": "Oat, Wild plant response rating (0 to 100 scale)", "setting": "[14]; 125 g ai/ha", "value": 90}, {"measurement": "Wheat plant response rating (0-100)", "setting": "[15]; 31 g ai/ha", "value": 0}, {"measurement": "Wheat plant response rating (0 to 100 scale)", "setting": "[15]; 125 g ai/ha", "value": 90}, {"measurement": "Blackgrass plant response rating (0-100)", "setting": "[16]; [28]", "value": 90}, {"measurement": "Blackgrass plant response rating (0 to 100 scale)", "setting": "[16]; [29]", "value": 100}, {"measurement": "Ryegrass, Italian plant response rating (0-100)", "setting": "[17]; [28]", "value": 30}, {"measurement": "Ryegrass, Italian plant response rating (0 to 100 scale)", "setting": "[17]; [29]", "value": 80}, {"measurement": "Kochia plant response rating (0-100)", "setting": "[18]; [28]", "value": 20}, {"measurement": "Kochia plant response rating (0 to 100 scale)", "setting": "[18]; [29]", "value": 50}, {"measurement": "Ragweed plant response rating (0-100)", "setting": "[19]; [28]", "value": 0}, {"measurement": "Ragweed plant response rating (0 to 100 scale)", "setting": "[19]; [29]", "value": 20}, {"measurement": "Amaranth, Palmer plant response rating (0-100)", "setting": "[20]; [28]", "value": 0}, {"measurement": "Amaranth, Palmer / Pigweed, Palmer plant response rating (0 to 100 scale)", "setting": "[20]; [29]", "value": 20}, {"measurement": "Soybean plant response rating (0-100)", "setting": "[21]; [28]", "value": 20}, {"measurement": "Soybean plant response rating (0 to 100 scale)", "setting": "[21]; [29]", "value": 60}, {"measurement": "Barnyardgrass plant response rating (0-100)", "setting": "[22]; [28]", "value": 10}, {"measurement": "Barnyardgrass plant response rating (0 to 100 scale)", "setting": "[22]; [29]", "value": 90}, {"measurement": "Corn plant response rating (0-100)", "setting": "[23]; [28]", "value": 0}, {"measurement": "Corn plant response rating (0 to 100 scale)", "setting": "[23]; [29]", "value": 100}, {"measurement": "Foxtail, Green plant response rating (0-100)", "setting": "[24]; [28]", "value": 20}, {"measurement": "Foxtail, Green plant response rating (0 to 100 scale)", "setting": "[24]; [29]", "value": 90}, {"measurement": "Horseweed plant response rating (0-100)", "setting": "[25]; [28]", "value": 10}, {"measurement": "Horseweed plant response rating (0 to 100 scale)", "setting": "[25]; [29]", "value": 0}, {"measurement": "Oat, Wild plant response rating (0-100)", "setting": "[26]; [28]", "value": 90}, {"measurement": "Oat, Wild plant response rating (0 to 100 scale)", "setting": "[26]; [29]", "value": 90}, {"measurement": "Wheat plant response rating (0-100)", "setting": "[27]; [28]", "value": 90}, {"measurement": "Wheat plant response rating (0 to 100 scale)", "setting": "[27]; [29]", "value": 90}]}
